In one data set the test system is P. falciparum K1. The experiment in a line: In vitro activity against erythrocytic stages of P. falciparum, 3H-hypoxanthine incorporation assay. The data set is classed as cell-based. As to conditions: Plasmodium falciparum. As for the experimental part:
(§1) VI. Design and Results of the in vitro & in vivo Studies.
A. Drug inhibition of in vitro cultured P. falciparum parasite:[2] All in vitro assays were carried out twice independently in duplicate.In vitro activity against theerythrocytic stages of P. falciparum was determined by using a 3H-hypoxanthine incorporation assay, using the chloroquine and pyrimethamine resistant K1 strain and the standard drugs chloroquine (Sigma C6628) and artemisinin (Arteannuin, Qinghaosu; Sigma 36,159- 3). Compounds were dissolved in DMSO at 10 mg/mL and added to parasite cultures incubated in RPMI 1640 medium without hypoxanthine, supplemented with HEPES (5.94 g/L), NaHCO3 (2.1 g/L), neomycin (100U/mL), AlbumaxR (5 g/L), and washed human red cells A+ at 2.5% haematocrit (0.3% parasitaemia). Serial doubling dilutions of each drug were prepared in 96-well microtiter plates and incubated in a humidified atmosphere at 37 °C; 4% CO 2, 3% O2, 93% N2. After 48 h, 50 µLof 3H-hypoxanthine (= 0.5 µCi) was added to each well of the plate. The plates were incubated for an additional 24 h under the same conditions. The plates were then harvested with a Betaplate cell harvester (Wallac, Zurich, Switzerland), and the red blood cells were transferred onto a glass fiber filter and then washed with distilled water. The dried filters were inserted into a plastic foil with 10 mL of scintillation fluid and were counted in a Betaplate™ liquid scintillation counter (Wallac, Zurich, Switzerland); IC50values were calculated from sigmoidal inhibition curves using Microsoft Excel. […]

A short description of data set [1]: In vitro cytotoxicity assay in L-6 cells (Alamar Blue). Conditions: rat, L-6 cells (rat skeletal myoblasts). As for the experimental part: as §1
A. Drug inhibition of in vitro cultured P. falciparum parasite:[2] […]
B. In vitro cytotoxicity assay: [2] Assays were performed in 96-well microtiter plates, each well containing 100 µl of RPMI 1640 medium supplemented with 1% L-glutamine (200mM) and 10% fetal bovine serum, and 4 x 10^4 L-6 cells (a primary cell line derived from rat skeletal myoblasts).
Serial drug dilutions of seven 3-fold dilution steps covering a range from 90 to 0.123 µg/mL were prepared. After 72 h of incubation the plates were inspected under an inverted microscope to assure growth of the controls and sterile conditions. 10µL of Alamar Blue was then added to each well and the plates incubated for another 2 h. Then the plates were read with a Spectramax Gemini XS microplatefluorometer (Molecular Devices Cooperation, Sunnyvale, CA, USA) using an excitation wave length of 536 nm and an emission wave length of 588 nm. Data were analysed using the microplate reader software Softmax Pro (Molecular Devices Cooperation, Sunnyvale, CA, USA).

Data set [2] in a line: Chromatographic LogD estimation (gLogD). Conditions: chromatographic gLogD technique, pH 7.4. It counts as physicochemical. As for the experimental part: (§2) IV. Physicochemical Evaluation […]
Chromatographic Log D Estimation: The partition coefficient (gLogDpH 7.4) of 20 was estimated by correlation of its chromatographic retention properties with the retention characteristics of a series of standard compounds with known partition coefficient values. Data were collected using a Waters 2785 HPLC with a Waters 2487 dual channel UV detector with a Phenomenex Synergi Hydro-RP 4 µm (30 mm x 2 mm) column. The mobile phase was aqueous buffer (50 mM ammonium acetate, pH 7.4) and acetonitrile with an acetonitrile gradient of 0-100% over 10 min. Compound elution was monitored at 220 and 254 nm. […]

Data set [3] is described as follows: Aqueous solubility estimation by nephelometry. As to conditions: 1% DMSO. The data set is classed as physicochemical. The method, then: as §2
Solubility Estimation: Aqueous solubility was estimated by nephelometry. A concentrated
stock solution prepared in DMSO was spiked into either pH 6.5 phosphate buffer or 0.01 N HCl
(approx. pH 2.0) with the final DMSO concentration being 1%. Samples were then analyzed by
Nephelometry to determine the solubility range as described previously.[9] […]

Data set [4] is described as follows: Metabolic stability, NADPH-dependent degradation in human liver microsomes. The data set is classed as in vitro ADME. The method, then:
(§3) Compound 20 (1 µM) was incubated at 37 ° C with human or mouse liver microsomes (BD Gentest, Discovery Labware Inc., Woburn, MA). The reaction was initiated by the addition of an NADPH-regenerating system containing 1 mg/mL NADP, 1 mg/mL glucose-6-phosphate, 1 U/mL glucose-6-phosphate dehydrogenase, and 0.67 mg/mL MgCl2and quenched at various time points over the incubation period (60 min) by the addition of ice cold acetonitrile. Samples were also incubated in the absence of co-factor to monitor for non-specific degradation. The relative loss of parent compound and formation of metabolic products were monitored by LC/MS using a Waters/Micromass LCT instrument.
(§4) Compound concentration versus time data were fitted to an exponential decay function to determine the first-order rate constant for substrate depletion which was used to obtain the in vitro intrinsic clearance (in vitro CLint), and then scaled to predict the human intrinsic clearance (scaling parameters included liver mass of 25.7 g liver/kg body weight for human and 87.5 g liver/kg body weight for mouse and microsomal protein content of 45 mg microsomal protein/g liver mass for […]
(§5) both species)[10]. […]

Data set [5] is described as follows: Metabolic stability, NADPH-dependent degradation in mouse liver microsomes. It counts as in vitro ADME. As for the experimental part: as §3, §4, §5
The test system of the next data set is P. berghei ANKA GFP. The experiment in a line: In vivo antimalarial efficacy, P. berghei mouse model (4 days treatment). Set-up: species or system Plasmodium berghei. As to conditions: 10 mg/kg/day × 4, ip, NMRI mice. As for the experimental part:
C. In vivo antimalarial efficacy studies (4 days treatment).[2]
In vivo antimalarial activity was assessed basically as previously described. Groups of three female […]
GFP-transfected P. berghei strain ANKA. .Unless otherwise indicated compounds were formulated in 100% DMSO, diluted 10-fold in distilled water and administered intraperitoneally in a volume of 10 mL kg-1 on four consecutive days (4, 24, 48 and 72 h post infection). Parasitemia was determined on day 4 post infection (24 h after last treatment) by FACS analysis. Activity was calculated as the difference between the mean per cent parasitaemia for the control (n=5 mice) and treated groups expressed as a per cent relative to the control group. The survival time in days was also recorded up to 30 days after infection. A compound was considered curative if the animal survived to day 30 after infection with no detectable parasites. In vivo efficacy studies in mice were conducted at the Swiss Tropical and Public Health Institute (Basel) according to the rules and regulations for the protection of animal rights ("Tierschutzverordnung") of the Swiss "BundesamtfürVeterinärwesen". They were approved by the veterinary office of Canton Basel-

≈ marks a conversion by molar mass, not a printed value. Like-named read-outs stand apart in the source and are kept apart here.

`Cc1cc(/C=C2\S/C(=N\c3ccccc3)N(C3CCCCC3)C2=O)c(C)n1-c1ccc(F)cc1` [Compound 20, (2Z, 5Z)-3-Cyclohexyl-5-((1-(4-fluorophenyl)-2,5-dimethyl-1H-pyrrol-3-yl)methylene)-2-(phenylimino)thiazolidin-4-one]: the EC50 with P. falciparum K1 (K1 strain (chloroquine and pyrimethamine resistant), means of two independent assays, read-out: P. falc. EC50) came out at 2000 nM. Besides, the EC50 at 72 h in data set [1] was above 190000 nM. Moreover, the chromatographic logD in data set [2] is 7.1. Further, the “Solubility pH 2.0” value in data set [3] (pH 2.0 (0.01 N HCl)) is “poor aqueous solubility”. Also, the solubility is below 0.8 µg/mL in data set [3] (pH 2.0 (0.01 N HCl), read-out: Solubility pH 2.0) and 0.8 to 1.6 µg/mL (≈ 1.69 to 3.38 µM) in data set [3] (pH 6.5 phosphate buffer, read-out: Solubility pH 6.5). Besides, the “Solubility pH 6.5” value in data set [3] (pH 6.5 phosphate buffer) is “poor aqueous solubility”. The Metabolites detected result was “no obvious metabolites were detected and None” in data set [4] (human liver microsomes, LC/MS); “no obvious metabolites were detected and None” in data set [5] (mouse liver microsomes, LC/MS). The “Microsome predicted hepatic extraction ratio EH” value in data set [4] (human, well-stirred model) is 0.67; in data set [5] (mouse, well-stirred model), 0.71. Moreover, the NADPH-dependent degradation result in data set [4] (incubation with human liver microsomes) and in data set [5] (incubation with mouse liver microsomes) was “rapid NADPH-dependent degradation” throughout. Further, the CLint scaled at 1 µM in data set [4] (liver microsomes, human, scaled from in vitro CLint, read-out: Microsome predicted in vivo CLint) was 42 mL/min/kg; in data set [5] (liver microsomes, mouse, scaled from in vitro CLint, read-out: Microsome predicted in vivo CLint), 216 mL/min/kg. Moreover, the “In vitro CLint” value in data set [5] (mouse liver microsomes, 1 µM, 37 °C, NADPH) is recorded as 0.055 ml/min/mg Protein.

In the case of `CCN(CC)CCCC(C)Nc1ccnc2cc(Cl)ccc12` (stereo not shown) [chloroquine], the EC50 in the data set on P. falciparum K1 (K1, read-out: EC50, control for P. falciparum K1) is 0.1 µg/mL. In addition, the “% Reduction parasitaemia P. berghei ANKA GFP” value in the data set with P. berghei ANKA GFP turned out to be 99.97%. For the same molecule, the “Survival” value in the data set on P. berghei ANKA GFP (control 7 days) is reported as 20 days.

Values taken from article PMC4607724, “Discovery and optimisation studies of antimalarial phenotypic hits” (European Journal of Medicinal Chemistry, 2015).
